Patent publication US9023849B2, “Substituted fused imidazoles and pyrazoles and use thereof” (Bayer Intellectual Property GmbH, priority 2012, dated 2015)

Assays:
[1] = system: recombinant guanylate cyclase reporter cell line; experiment: Effect on a recombinant guanylate cyclase reporter cell line; format: cell-based; conditions: read-out: MEC (minimal effective concentration)
Protocol: B-2. Effect on a Recombinant Guanylate Cyclase Reporter Cell Line
The cellular action of the inventive compounds is determined on a recombinant guanylate cyclase reporter cell line as described in F. Wunder et al., Anal. Biochem. 339, 104-112 (2005).

human PDE 5 = human PDE 5 (Homo sapiens (Human), UniProt O76074); experiment: Inhibition of human phosphodiesterase 5 (PDE 5), SPA assay; format: biochemical; conditions: PDE 5 preparation from human platelets, [8-3H]cGMP substrate
Protocol: B-6. Inhibition of Human Phosphodiesterase 5 (PDE 5)
PDE 5 preparations are obtained from human platelets by disruption (Microfluidizer®, 800 bar, 3 passes), followed by centrifugation (75 000 g, 60 min, 4° C.) and ion exchange chromatography of the supernatant on a Mono Q 10/10 column (linear sodium chloride gradient, elution with a 0.2-0.3M solution of sodium chloride in buffer (20 mM Hepes pH 7.2, 2 mM magnesium chloride). Fractions having PDE 5 activity are combined (PDE 5 preparation) and stored at −80° C.
To determine their in vitro action on human PDE 5, the test substances are dissolved in 100% DMSO and serially diluted. Typically, dilution series (1:3) from 200 μM to 0.091 μM are prepared (resulting final concentrations in the test: 4 μM to 0.0018 μM). In each case 2 μl of the diluted substance solutions are placed into the wells of microtitre plates (Isoplate-96/200 W; Perkin Elmer). Subsequently, 50 μl of a dilution of the above-described PDE 5 preparation are added. The dilution of the PDE 5 preparation is selected such that, during the later incubation, less than 70% of the substrate is converted (typical dilution: 1:100; dilution buffer: 50 mM tris/hydrochloric acid pH 7.5, 8.3 mM magnesium chloride, 1.7 mM EDTA, 0.2% BSA). The substrate, [8-^3H]cyclic guanosine-3′,5′-monophosphate (1 μCi/μl; Perkin Elmer) is diluted 1:2000 with assay buffer (50 mM tris/hydrochloric acid pH 7.5, 8.3 mM magnesium chloride, 1.7 mM EDTA) to a concentration of 0.0005 μCi/μl. By addition of 50 μl (0.025 μCi) of the diluted substrate, the enzyme reaction is finally started. The test mixtures are incubated at room temperature for 60 min and the reaction is stopped by adding 25 μl of a suspension of 18 mg/ml yttrium scintillation proximity beads in water (phosphodiesterase beads for SPA assays, RPNQ 0150, Perkin Elmer). The microtitre plates are sealed with a film and left to stand at room temperature for 60 min Subsequently, the plates are analysed for 30 s per well in a Microbeta scintillation counter (Perkin Elmer). IC50 values are determined using the graphic plot of the substance concentration against percentage PDE 5 inhibition.

rabbit aorta rings = experiment: Vasorelaxant effect in vitro (rabbit aorta rings precontracted with phenylephrine); conditions: Oryctolagus cuniculus, phenylephrine contraction, read-out: IC50 (concentration needed to reduce the magnitude of the phenylephrine contraction by 50%)
Protocol: B-1. Vasorelaxant Effect In Vitro
Rabbits are stunned by a blow to the neck and exsanguinated. The aorta is removed, freed from adhering tissue and divided into rings of width 1.5 mm, which are placed individually under prestress into 5 ml organ baths with carbogen-sparged Krebs-Henseleit solution at 37° C. having the following composition (each mM): sodium chloride: 119; potassium chloride: 4.8; calcium chloride dihydrate: 1; magnesium sulphate heptahydrate: 1.4; potassium dihydrogenphosphate: 1.2; sodium hydrogencarbonate: 25; glucose: 10. The contractile force is determined with Statham UC2 cells, amplified and digitalized using A/D transducers (DAS-1802 HC, Keithley Instruments Munich), and recorded in parallel on linear recorders.
To obtain a contraction, phenylephrine is added to the bath cumulatively in increasing concentration. After several control cycles, the substance to be studied is added in increasing dosage each time in every further run, and the magnitude of the contraction is compared with the magnitude of the contraction attained in the last preceding run. This is used to calculate the concentration needed to reduce the magnitude of the control value by 50% (IC50 value). The standard administration volume is 5 μl; the DMSO content in the bath solution corresponds to 0.1%.

IC50 (human PDE 5) [nM] | IC50 (rabbit aorta rings) [nM] | SMILES | minimal effective concentration [1] [µM]
370 | 124 | CC1(C)C(=O)Nc2nc(-c3nn(Cc4ccccc4F)c4ncncc34)nnc21 [Example 19, 3-[1-(2-Fluorobenzyl)-1H-pyrazolo[3,4-d]pyrimidin-3-yl]-7,7-dimethyl-5,7-dihydro-6H-pyrrolo[2,3-e][1,2,4]triazin-6-one] | 0.1
440 | 8060 | CCc1nc(-n2nc(Cc3ccccc3F)c3cc(F)ccc32)nc2c1C(C)(C)C(=O)N2 [Example 23, 4-Ethyl-2-[5-fluoro-3-(2-fluorobenzyl)-1H-indazol-1-yl]-5,5-dimethyl-5,7-dihydro-6H-pyrrolo[2,3-d]pyrimidin-6-one] | 1
75 | 1130 | CC1(C)C(=O)Nc2nc(-n3nc(Cc4ccccc4F)c4cc(F)ccc43)nnc21 [Example 21, 3-[5-Fluoro-3-(2-fluorobenzyl)-1H-indazol-1-yl]-7,7-dimethyl-5,7-dihydro-6H-pyrrolo[2,3-e][1,2,4]triazin-6-one] | 0.1
230 | 292 | Cc1ncc2c(-c3ncc4c(n3)NC(=O)C4(C)C)nn(Cc3cccc(F)c3F)c2n1 [Example 17, 2-[1-(2,3-Difluorobenzyl)-6-methyl-1H-pyrazolo[3,4-d]pyrimidin-3-yl]-5,5-dimethyl-5,7-dihydro-6H-pyrrolo[2,3-d]pyrimidin-6-one] | 0.3
450 | 10000 | CCCc1nc(-n2nc(Cc3ccccc3F)c3ccccc32)nc2c1C(C)(C)C(=O)N2 [Example 28, 2-[3-(2-Fluorobenzyl)-1H-indazol-1-yl]-5,5-dimethyl-4-propyl-5,7-dihydro-6H-pyrrolo[2,3-d]-pyrimidin-6-one] | 1
340 | 1670 | Cc1nc(-n2nc(Cc3ccccc3F)c3cc(F)ccc32)nc2c1C(C)(C)C(=O)N2 [Example 27, 2-[5-Fluoro-3-(2-fluorobenzyl)-1H-indazol-1-yl]-4,5,5-trimethyl-5,7-dihydro-6H-pyrrolo[2,3-d]pyrimidin-6-one] | 0.3
25 |  | CC1(C)C(=O)Nc2nc(-c3nn(Cc4ccccc4F)c4cc(Cl)ccc34)nnc21 [Example 24, 3-[6-Chloro-1-(2-fluorobenzyl)-1H-indazol-3-yl]-7,7-dimethyl-5,7-dihydro-6H-pyrrolo[2,3-e][1,2,4]triazin-6-one] | 0.1
95 | 794 | CC1(C)C(=O)Nc2nc(-c3nn(CCC(F)(F)C(F)(F)F)c4cc(Cl)ccc34)nnc21 [Example 26, 3-[6-Chloro-1-(3,3,4,4,4-pentafluorobutyl)-1H-indazol-3-yl]-7,7-dimethyl-5,7-dihydro-6H-pyrrolo[2,3-e][1,2,4]triazin-6-one] | 0.3
530 | 7730 | CC1(C)C(=O)Nc2nc(-n3nc(CCC(F)(F)C(F)(F)F)c4cc(F)ccc43)nnc21 [Example 22, 3-[5-Fluoro-3-(3,3,4,4,4-pentafluorobutyl)-1H-indazol-1-yl]-7,7-dimethyl-5,7-dihydro-6H-pyrrolo[2,3-e][1,2,4]triazin-6-one] | 1
16 | 1140 | Cc1ncc2c(-c3nnc4c(n3)NC(=O)C4(C)C)nn(Cc3cccc(F)c3F)c2n1 [Example 18, 3-[1-(2,3-Difluorobenzyl)-6-methyl-1H-pyrazolo[3,4-d]pyrimidin-3-yl]-7,7-dimethyl-5,7-dihydro-6H-pyrrolo[2,3-e][1,2,4]triazin-6-one] | 0.3
160 |  | CC1(C)C(=O)Nc2nc(-c3nn(Cc4ncccc4F)c4cc(Cl)ccc34)nnc21 [Example 25, 3-[6-Chloro-1-[(3-fluoropyridin-2-yl)methyl]-1H-indazol-3-yl]-7,7-dimethyl-5,7-dihydro-6H-pyrrolo[2,3-e][1,2,4]triazin-6-one] | 0.3

The next lines start with the compound.

SMILES | IC50 (human PDE 5) [nM] | IC50 (rabbit aorta rings) [nM] | minimal effective concentration [1] [µM]
CC1(C)C(=O)Nc2nc(-n3nc(Cc4ccccc4F)c4cc(F)ccc43)nc(I)c21 [Example 6, 2-[5-Fluoro-3-(2-fluorobenzyl)-1H-indazol-1-yl]-4-iodo-5,5-dimethyl-5,7-dihydro-6H-pyrrolo[2,3-d]pyrimidin-6-one] | 690 |  | 0.766
CC1(C)C(=O)Nc2nc(-n3nc(Cc4ccccc4F)c4ccccc43)nc(I)c21 [Example 3, 2-[3-(2-Fluorobenzyl)-1H-indazol-1-yl]-4-iodo-5,5-dimethyl-5,7-dihydro-6H-pyrrolo[2,3-d]pyrimidin-6-one] | 690 |  | 0.3
CC1(C)C(=O)Nc2nc(-n3nc(Cc4ccccc4F)c4ccccc43)ncc21 [Example 5, 2-[3-(2-Fluorobenzyl)-1H-indazol-1-yl]-5,5-dimethyl-5,7-dihydro-6H-pyrrolo[2,3-d]pyrimidin-6-one] | 440 | 22 | 0.03
CC1(C)C(=O)Nc2nc(-n3nc(Cc4ccccc4F)c4cc(F)ccc43)ncc21 [Example 8, 2-[5-Fluoro-3-(2-fluorobenzyl)-1H-indazol-1-yl]-5,5-dimethyl-5,7-dihydro-6H-pyrrolo[2,3-d]pyrimidin-6-one] | 400 | 95 | 0.3
CC1(C)C(=O)Nc2nc(-c3nn(Cc4ccccc4F)c4c3CCC4)nnc21 [Example 12, 3-[1-(2-Fluorobenzyl)-1,4,5,6-tetrahydrocyclopenta[c]pyrazol-3-yl]-7,7-dimethyl-5,7-dihydro-6H-pyrrolo[2,3-e][1,2,4]triazin-6-one] | 3500 |  | 1
CC1(C)C(=O)Nc2nc(-c3nn(Cc4ccccc4F)c4c3CCC4)ncc21 [Example 11, 2-[1-(2-Fluorobenzyl)-1,4,5,6-tetrahydrocyclopenta[c]pyrazol-3-yl]-5,5-dimethyl-5,7-dihydro-6H-pyrrolo[2,3-d]pyrimidin-6-one] | 4000 | 601 | 0.3
Cc1ncc2c(-c3nnc4c(n3)NC(=O)C4(C)C)nn(Cc3ccccc3F)c2n1 [Example 16, 3-[1-(2-Fluorobenzyl)-6-methyl-1H-pyrazolo[3,4-d]pyrimidin-3-yl]-7,7-dimethyl-5,7-dihydro-6H-pyrrolo[2,3-e][1,2,4]triazin-6-one] | 64 | 340 | 0.3
CC1(C)C(=O)Nc2nc(-n3nc(Cc4ccccc4F)c4ncc(F)cc43)nnc21 [Example 9, 3-[6-Fluoro-3-(2-fluorobenzyl)-1H-pyrazolo[4,3-b]pyridin-1-yl]-7,7-dimethyl-5,7-dihydro-6H-pyrrolo[2,3-e][1,2,4]triazin-6-one] | 85 | 641 | 0.1
CC1(C)C(=O)Nc2nc(-c3nn(Cc4ccccc4F)c4c3CCC4)nc(I)c21 [Example 10, 2-[1-(2-Fluorobenzyl)-1,4,5,6-tetrahydrocyclopenta[c]pyrazol-3-yl]-4-iodo-5,5-dimethyl-5,7-dihydro-6H-pyrrolo[2,3-d]pyrimidin-6-one] | 480 |  | 1
CC1(C)C(=O)Nc2nc(-n3nc(Cc4c(F)ccc(F)c4F)c4cc(Cl)ccc43)ncc21 [Example 2, 2-[5-Chloro-3-(2,3,6-trifluorobenzyl)-1H-indazol-1-yl]-5,5-dimethyl-5,7-dihydro-6H-pyrrolo[2,3-d]pyrimidin-6-one] | 3700 | 5160 | 0.065
